Experimental data taken from US20240279202A1 (NURIX THERAPEUTICS, INC., priority 2021, published 2024).

Target: T1, ITK (Mus musculus, UniProt Q03526)
T1 construct: mice were sacrificed and splenocytes were isolated and used to prepare protein lysates; from tissue; host or cells: mouse splenocytes (spleen) after oral dosing
T1 sequence (Q03526 1-625): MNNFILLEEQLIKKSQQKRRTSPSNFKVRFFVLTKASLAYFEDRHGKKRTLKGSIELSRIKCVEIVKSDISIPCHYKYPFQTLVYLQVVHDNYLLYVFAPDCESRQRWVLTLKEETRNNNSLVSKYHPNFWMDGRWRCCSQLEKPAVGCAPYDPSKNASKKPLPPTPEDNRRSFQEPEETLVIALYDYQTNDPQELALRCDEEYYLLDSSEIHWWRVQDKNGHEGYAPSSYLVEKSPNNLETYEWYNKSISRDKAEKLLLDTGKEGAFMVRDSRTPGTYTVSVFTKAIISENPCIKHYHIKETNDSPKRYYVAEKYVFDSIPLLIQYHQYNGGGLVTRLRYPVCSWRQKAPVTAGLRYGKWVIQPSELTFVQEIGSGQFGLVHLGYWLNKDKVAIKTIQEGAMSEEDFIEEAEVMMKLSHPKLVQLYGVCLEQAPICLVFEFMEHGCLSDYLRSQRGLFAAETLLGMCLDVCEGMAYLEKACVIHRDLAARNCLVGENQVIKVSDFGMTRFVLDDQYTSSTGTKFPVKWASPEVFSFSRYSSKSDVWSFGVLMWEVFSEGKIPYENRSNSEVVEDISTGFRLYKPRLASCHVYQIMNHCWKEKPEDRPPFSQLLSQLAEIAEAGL
Assay: Mouse PD assay for ITK degradation (Western blot, splenocytes after oral administration)
Format: in vivo
Conditions: for ITK (%) 90 mpk PO, 6 h: percent ITK remaining in mouse splenocytes relative to vehicle; for ITK degradation in vivo at 6 hours (FIG. 3A, FIG. 4A): mice, oral, splenocytes, Western blot
Method in brief: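 Mice dosed orally, some compounds at 90 mg/kg; splenocytes harvested after 6 hours (some 24 hours). ITK measured by Western blot of equal-protein lysates, normalized to actin. Values are % ITK remaining relative to vehicle-control mean.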

SMILES | ITK (%) 90 mpk PO, 6 h [%] | ITK degradation in vivo at 6 hours (FIG. 3A, FIG. 4A)
C[C@@]12Cc3[nH]nc(-c4cc5ccc(N6CCC7(CCN(CC8CCN(c9ccc(C%10CCC(=O)NC%10=O)cn9)CC8)CC7)C6=O)cc5[nH]4)c3C[C@@H]1C2(F)F (stereo partly drawn) [Compound 19, 3-(6-(4-((2-(2-((4aS,5aR)-5,5-difluoro-5a-methyl-1,4,4a,5,5a,6-hexahydrocyclopropa[f]indazol-3-yl)-1H-indol-6-yl)-1-oxo-2,8-diazaspiro[4.5]decan-8-yl)methyl)piperidin-1-yl)pyridin-3-yl)piperidine-2,6-dione] | 8 | 
CN(C(=O)CCC1CCN(c2ccc(C3CCC(=O)NC3=O)cn2)CC1)c1ccc2cc(-c3n[nH]c4c3C[C@@H]3C(F)(F)[C@]3(C)C4)[nH]c2c1 (stereo partly drawn) [Compound 21, N-(2-((4aS,5aR)-5,5-difluoro-5a-methyl-1,4,4a,5,5a,6-hexahydrocyclopropa[f]indazol-3-yl)-1H-indol-6-yl)-3-(1-(5-(2,6-dioxopiperidin-3-yl)pyridin-2-yl)piperidin-4-yl)-N-methylpropanamide] | 76 | 
CC1(C)CCc2c(-c3cc4ccc(N5CCC6(CCN(CC7CCN(c8ccc(C9CCC(=O)NC9=O)cn8)CC7)CC6)C5=O)cc4[nH]3)n[nH]c2C1 (stereo not drawn) [Compound 22, 3-(6-(4-((2-(2-(6,6-dimethyl-4,5,6,7-tetrahydro-1H-indazol-3-yl)-1H-indol-6-yl)-1-oxo-2,8-diazaspiro[4.5]decan-8-yl)methyl)piperidin-1-yl)pyridin-3-yl)piperidine-2,6-dione] | 76 | 
C[C@@H](C(=O)N(C)c1ccc2cc(-c3n[nH]c4c3CCC(C)(C)C4)[nH]c2c1)N1CCN(C[C@H]2CCN(c3ccc4c(c3)C(=O)N(C3CCC(=O)NC3=O)C4=O)C2)CC1 (stereo partly drawn) [Compound 33, (2S)—N-(2-(6,6-dimethyl-4,5,6,7-tetrahydro-1H-indazol-3-yl)-1H-indol-6-yl)-2-(4-(((3R)-1-(2-(2,6-dioxopiperidin-3-yl)-1,3-dioxoisoindolin-5-yl)pyrrolidin-3-yl)methyl)piperazin-1-yl)-N-methylpropanamide] | 67 | 
C[C@@H](C(=O)N(C)c1ccc2cc(-c3n[nH]c4c3CCC(C)(C)C4)[nH]c2c1)N1CCN(C(=O)C2CN(C3CCN(c4ccc5c(c4)C(=O)N(C4CCC(=O)NC4=O)C5=O)CC3)C2)CC1 (stereo partly drawn) [Compound 34, (2S)—N-(2-(6,6-dimethyl-4,5,6,7-tetrahydro-1H-indazol-3-yl)-1H-indol-6-yl)-2-(4-(1-(1-(2-(2,6-dioxopiperidin-3-yl)-1,3-dioxoisoindolin-5-yl)piperidin-4-yl)azetidine-3-carbonyl)piperazin-1-yl)-N-methylpropanamide] | 108 | 
CN(C(=O)C1CN(C2CCN(c3ccc4c(c3)C(=O)N(C3CCC(=O)NC3=O)C4=O)CC2)C1)c1ccc2cc(-c3n[nH]c4c3CCC(C)(C)C4)[nH]c2c1 (stereo not drawn) [Compound 35, N-(2-(6,6-dimethyl-4,5,6,7-tetrahydro-1H-indazol-3-yl)-1H-indol-6-yl)-1-(1-(2-(2,6-dioxopiperidin-3-yl)-1,3-dioxoisoindolin-5-yl)piperidin-4-yl)-N-methylazetidine-3-carboxamide] | 108 | 
C[C@@]12Cc3[nH]nc(C(=O)Nc4cnn(CC5CN(C(=O)C6CN(C7CCN(c8ccc9c(c8)C(=O)N(C8CCC(=O)NC8=O)C9=O)CC7)C6)C5)c4)c3C[C@@H]1C2(F)F (stereo partly drawn) [Compound 42, (4aS,5aR)-N-(1-((1-(1-(1-(2-(2,6-dioxopiperidin-3-yl)-1,3-dioxoisoindolin-5-yl)piperidin-4-yl)azetidine-3-carbonyl)azetidin-3-yl)methyl)-1H-pyrazol-4-yl)-5,5-difluoro-5a-methyl-1,4,4a,5,5a,6-hexahydrocyclopropa[f]indazole-3-carboxamide] | 82 | 
C[C@@]12Cc3[nH]nc(C(=O)Nc4cnn(CC5CN(C(=O)C6CN(c7ccc8c(c7)C(=O)N(C7CCC(=O)NC7=O)C8=O)C6)C5)c4)c3C[C@@H]1C2(F)F (stereo partly drawn) [Compound 43, (4aS,5aR)-N-(1-((1-(1-(2-(2,6-dioxopiperidin-3-yl)-1,3-dioxoisoindolin-5-yl)azetidine-3-carbonyl)azetidin-3-yl)methyl)-1H-pyrazol-4-yl)-5,5-difluoro-5a-methyl-1,4,4a,5,5a,6-hexahydrocyclopropa[f]indazole-3-carboxamide] | 7 | degraded ITK in vivo
C[C@@]12Cc3[nH]nc(C(=O)Nc4cnn(CC5CN(C[C@H]6CCN(c7ccc8c(c7)C(=O)N(C7CCC(=O)NC7=O)C8=O)C6)C5)c4)c3C[C@@H]1C2(F)F (stereo partly drawn) [Compound 44, (4aS,5aR)-N-(1-((1-(((3R)-1-(2-(2,6-dioxopiperidin-3-yl)-1,3-dioxoisoindolin-5-yl)pyrrolidin-3-yl)methyl)azetidin-3-yl)methyl)-1H-pyrazol-4-yl)-5,5-difluoro-5a-methyl-1,4,4a,5,5a,6-hexahydrocyclopropa[f]indazole-3-carboxamide] | 75 | degraded ITK in vivo
Cn1c(=O)n([C@H]2CCC(=O)NC2=O)c2cccc(N3CCC(CN4CCN(C(=O)c5ccc6cc(-c7n[nH]c8c7CCC(C)(C)C8)[nH]c6c5)CC4)CC3)c21 [Compound 46, (S)-3-(4-(4-((4-(2-(6,6-dimethyl-4,5,6,7-tetrahydro-1H-indazol-3-yl)-1H-indole-6-carbonyl)piperazin-1-yl)methyl)piperidin-1-yl)-3-methyl-2-oxo-2,3-dihydro-1H-benzo[d]imidazol-1-yl)piperidine-2,6-dione] | 102 | 
CC1(C)CCc2c(-c3cc4ccc(C(=O)N5CCN(CC6CCN(c7ccc(C8CCC(=O)NC8=O)cn7)CC6)CC5)cc4[nH]3)n[nH]c2C1 (stereo not drawn) [Compound 47, 3-(6-(4-((4-(2-(6,6-dimethyl-4,5,6,7-tetrahydro-1H-indazol-3-yl)-1H-indole-6-carbonyl)piperazin-1-yl)methyl)piperidin-1-yl)pyridin-3-yl)piperidine-2,6-dione] | 11 | 
Cn1c(=O)n([C@@H]2CCC(=O)NC2=O)c2cccc(N3CCC(CN4CCN(C(=O)c5ccc6cc(-c7n[nH]c8c7CCC(C)(C)C8)[nH]c6c5)CC4)CC3)c21 [Compound 48, (R)-3-(4-(4-((4-(2-(6,6-dimethyl-4,5,6,7-tetrahydro-1H-indazol-3-yl)-1H-indole-6-carbonyl)piperazin-1-yl)methyl)piperidin-1-yl)-3-methyl-2-oxo-2,3-dihydro-1H-benzo[d]imidazol-1-yl)piperidine-2,6-dione] | 35 | 
C[C@@]12Cc3[nH]nc(C(=O)Nc4cnn(CC5CN(C(=O)C6CN(c7ccc(C8CCC(=O)NC8=O)cn7)C6)C5)c4)c3C[C@@H]1C2(F)F (stereo partly drawn) [Compound 49, (4aS,5aR)-N-(1-((1-(1-(5-(2,6-dioxopiperidin-3-yl)pyridin-2-yl)azetidine-3-carbonyl)azetidin-3-yl)methyl)-1H-pyrazol-4-yl)-5,5-difluoro-5a-methyl-1,4,4a,5,5a,6-hexahydrocyclopropa[f]indazole-3-carboxamide] | 129 | 
C[C@@]12Cc3[nH]nc(C(=O)Nc4cnn(CC5CN(C(=O)C6CCN(c7ccc(C8CCC(=O)NC8=O)cn7)CC6)C5)c4)c3C[C@@H]1C2(F)F (stereo partly drawn) [Compound 50, (4aS,5aR)-N-(1-((1-(1-(5-(2,6-dioxopiperidin-3-yl)pyridin-2-yl)piperidine-4-carbonyl)azetidin-3-yl)methyl)-1H-pyrazol-4-yl)-5,5-difluoro-5a-methyl-1,4,4a,5,5a,6-hexahydrocyclopropa[f]indazole-3-carboxamide] | 113 | 
C[C@@H](C(=O)N(C)c1ccc2cc(-c3n[nH]c4c3C[C@@H]3C(F)(F)[C@]3(C)C4)[nH]c2c1)N1CCN(CC2CCN(c3cccc4c3n(C)c(=O)n4C3CCC(=O)NC3=O)CC2)CC1 (stereo partly drawn) [Compound 65, (2S)—N-(2-((4aS,5aR)-5,5-difluoro-5a-methyl-1,4,4a,5,5a,6-hexahydrocyclopropa[f]indazol-3-yl)-1H-indol-6-yl)-2-(4-((1-(1-(2,6-dioxopiperidin-3-yl)-3-methyl-2-oxo-2,3-dihydro-1H-benzo[d]imidazol-4-yl)piperidin-4-yl)methyl)piperazin-1-yl)-N-methylpropanamide] | 58 | 
C[C@@H](C(=O)N(C)c1ccc2cc(-c3n[nH]c4c3C[C@@H]3C(F)(F)[C@]3(C)C4)[nH]c2c1)N1CCN(CC2CCN(c3ccc(C(=O)NC4CCC(=O)NC4=O)nc3)CC2)CC1 (stereo partly drawn) [Compound 66, 5-(4-((4-((S)-1-((2-((4aS,5aR)-5,5-difluoro-5a-methyl-1,4,4a,5,5a,6-hexahydrocyclopropa[f]indazol-3-yl)-1H-indol-6-yl)(methyl)amino)-1-oxopropan-2-yl)piperazin-1-yl)methyl)piperidin-1-yl)-N-(2,6-dioxopiperidin-3-yl)picolinamide] | 42.7 | 
